From patent US20220143095A1, “NOVEL ANUCLEATED CELLS AND USES THEREOF” (Platelet Biogenesis, Inc., priority 2020, published 2022)

Experiments:
[1] = test system: liver fibrosis; experiment: Carbon tetrachloride liver fibrosis mouse model (hydroxyproline analysis); assay type: in vivo; settings: D30, versus carbon tetrachloride mice without intervention
Method: In order to determine if PLCs have a beneficial effect in treating liver fibrosis, fibrosis was initiated with 3× weekly application of 0.1 mL/kg injection of carbon tetrachloride diluted in corn oil for 2 weeks; control mice received corn oil itself for those 2 weeks. Carbon tetrachloride applications continued throughout the next step. Mice that received carbon tetrachloride were separated into 3 cohorts at the two-week mark: • 1. Plasmalyte application on D15, 22, 29 (Carbon Tet mice) • 2. rHGF diluted to 30 ug/mL in plasmalyte and dosed daily at 0.3 mg/kg (Peprotech HGF 100-39H-1 mg) • 3. PLC applications of ˜3e10 Platelet Equivalency Units (PEUs)/kg per mouse on D15, 22, 29. D15 was 5e10, D22 was 3e10, D29 was 5e10.
All mice were sacrificed on D30, livers were excised, and fresh frozen for ˜2-3 hours. Hydroxyproline analysis was done using a hydroxyproline kit (Abcam #ab222941).
Briefly, livers were trimmed, weighed, and the homogenized in DI water at ˜10 uL water/mg of liver with a Dounce homogenizer. The equivalent of 10 mg (˜100 uL) were removed and digested in equal volume 10N NaOH for 2 hours at 120° C. Samples were cooled and quenched with 100 uL 10N HCl, vortexed, and then spun in a centrifuge for 5 mins at 10,000×g. […] Samples were then processed as the manufacturer directed and analyzed with a plate reader. […]

[2] = In vivo localization of PLCs/HGF-ePLCs in fibrotic mice; set-up: species or system Immune-deficient mice (NSG); settings: 30 mins after treatment
Method: Immune-deficient mice (NSG) were dosed with 0.25 mL/kg of carbon tetrachloride 3 times per week for 2 weeks to initiate liver fibrosis. Control mice were treated with similar volumes of corn oil. On D15, fibrotic mice were treated with the following: Plasmalyte, recombinant HGF (Peprotech Cat #100-39H-1 mg), PLCs that had been generated the previous day and diluted in plasmalyte, or HGF-ePLCs that had been generated the previous day and diluted in plasmalyte. Treatments were allowed to circulate for 30 mins and then mice were sacrificed, exsanguinated, and livers were prepared and frozen for analysis.
FIG. 32B examines circulating PLCs in blood. Blood from PLC or ePLC treatment mice was analyzed via flow cytometry with a human-specific CD61 antibody (Miltenyi Cat #130-110-754) as an indicator of circulating PLCs/ePLCs. […] In FIG. 32C, fluorescence staining of livers removed from treated fibrotic mice for HGF were performed. Livers were embedded in OCT, sectioned, and mounted on slides. Sections were then fixed in ice-cold Acetone for 10 mins and dried for an additional 20 mins. […] The results shown in FIG. 32D show fluorescence staining of livers removed from treated fibrotic mice for CD61. […]

**Q.** With “HGF: recombinant HGF (Peprotech HGF 100-39H-1 mg)” as the substance, how does the “collagen per weight of liver” value [1] read?
**A.** apparent reduction of collagen per weight of liver

**Q.** And the “HGF signal in liver (fluorescence staining)” value [2]?
**A.** increase HGF signal
